Results on one compound are retold here after article PMC6270814, “Effects of Ursolic Acid Derivatives on Caco-2 Cells and Their Alleviating Role in Streptozocin-Induced Type 2 Diabetic Rats” (Molecules, 2014).

Test [1] has as its system STZ-induced diabetic rats. The experiment in a line: Serum biochemical parameters (insulin, total protein, albumin) in STZ-induced diabetic rats. The following applies: 4 weeks, compounds 100 mg/kg, glibenclamide 10 mg/kg. The format is in vivo, rat. The procedure:
(§1) Diabetes was induced by a single intraperitoneal injection of streptozotocin (Sigma-Aldrich, St. Louis, MO, USA) at a dose of 65 mg/kg body weight. STZ was dissolved in 0.1 M cold citrate buffer, pH 4.5. Control group were injected with citrate buffer alone. After 7 days for the development of diabetes, plasma glucose levels were determined of each rat. Rats with fasting blood glucose (FBG) range of above 16.7 mmol/L were considered as DM rats and were used for further study.
(§2) According to the body weight and plasma glucose levels the rats were divided randomly into seven groups with six rats each and treated as follows: • Group I: Normal rats treated with 0.5% CMC-Na (2 mL/200 g body weight). • Group II: Diabetic rats treated with 0.5% CMC-Na. • Group III: Diabetic rats treated with 10 mg/kg of glibenclamide. • Group IV: Diabetic rats treated with 100 mg/kg of compound 1 (UA). • Group V: Diabetic rats treated with 100 mg/kg of compound 10. • Group VI: Diabetic rats treated with 100 mg/kg of compound 11. • Group VII: Diabetic rats treated with 100 mg/kg of compound 12.
(§3) The treatment was continued daily for 28 days. Blood glucose levels and body weight were measured every week to ascertain the status of diabetes. After 4 weeks of treatment, the animals were fasted for 12 h and sacrificed by cervical dislocation under mild anaesthetization, blood was collected into heparinized tubes and centrifuged at 2,000 rpm for 10 min. Livers and kidneys were removed, washed and homogenized in ice-cold normal saline. This homogenates were centrifuged at 3,000 rpm for 10 min at 4 °C, and the supernatants were collected for the estimate of antioxidant markers.
(§4) Fasting blood glucose levels were estimated on days 0, 7, 14, 28 with the single touch glucometer (Life Scan, Johnson & Johnson Company, New Brunswick, NJ, USA). Serum insulin level was measured by use of a commercial immunoassay kit by enzyme linked immunosorbent assay (Uscn. Life Science Inc., Wuhan, China). Serum total protein, albumin, triglycerides (TG), total cholesterol (TC), high-density lipoprotein cholesterol (HDL-C), and low-density lipoprotein cholesterol (LDL-C) were measured with an automatic biochemical analyzer (Sinnowa D240, Nanjing, China).

Test [2] relates to STZ-induced diabetic rats. The test can be described thus: Serum lipid profile (TG, TC, LDL-C, HDL-C) in STZ-induced diabetic rats. The following applies: 4 weeks, compounds 100 mg/kg, glibenclamide 10 mg/kg. It counts as in vivo, rat. The procedure:
as §1, §2, §3, §4

Test [3] relates to SGLT-1. The experiment in a line: Western blot of SGLT-1 protein expression in Caco-2 cells. It counts as cell-based, Human. As to conditions: 100 μM, 6 h. The method, then:
Caco-2 cells were cultured on 6-well plates at a density of 1 × 10^6 cells/well for 13 days. The cells were placed in serum-free medium for 24 h prior to the treatment. Then UA and its derivatives (100 μM) were added, after 6 h incubation, the cells were immediately washed three times with ice-cold PBS and lysed in 200 μL lysis buffer. Cells were allowed to lyse on ice, and then scraped, vortexed, sonicated and stored at −80 °C for further analysis. Protein concentrations were determined as described and cell lysate was subjected to western blot analysis. Briefly, proteins with same amount were denatured in sample buffer, separated on 8% SDS-PAGE gel, and transferred onto a polyvinylidene diflouride membrane. […] Membranes were then incubated overnight at 4 °C in blocking buffer with antibodies for GLUT-2, SGLT-1 and β-actin (EMD, Millipore, Billerica, MA, USA). Membranes were washed with TBST and incubated 1 h with appropriate secondary antibodies. Revelation was performed by using the enhanced chemiluminescence reagent and blue-light sensitive film. Densitometric analysis of films was performed with a Hewlett-Packard scanner equipped with a transparent adaptor and UN-SCAN-IT software.

For test [4], the system named is Caco-2 cells. The test can be described thus: 2-NBDG glucose uptake by Caco-2 cell monolayers, Na+-independent (sodium free buffer). It counts as cell-based, Human. The following applies: 100 μM compound, Na+-independent (KCl/K2HPO4 buffer). The method, then:
Caco-2 cells, which were derived from human colon adenocarcinoma, were selected for intestinal absorption studies because these cells express the morphological characteristics and most of the functional properties of differentiated small-intestinal enterocytes. Caco-2 cells were seeded on 24-well plates at the density of 2 × 10^5 cells/well. The medium was changed every 1–2 days, and the culture was carried out for 13 days. Then Caco-2 cells were placed in serum-free media for 24 h and then they were washed twice with Hanks’ balanced salt solution (HBSS, pH 7.5, 140 mM NaCl, 5 mM KCl, 1.2 mM Na2HPO4, 2 mM CaCl2, 1.2 mM MgSO4, 20 mM HEPES, 0.2% bovine serum albumin) before the uptake studies. When a sodium free buffer was required, NaCl and Na2HPO4 were replaced with equal amounts of KCl and K2HPO4, respectively. After washing, the cells were incubated for 15 min at room temperature in HBSS before the commencement of this experiment. The uptake studies were initiated by adding HBSS containing either control or test solution (100 μM) and […] (100 μM) for 30 min at 37 °C. Glucose uptake was stopped by adding twofold volume of ice-cold PBS and the wells were washed with ice-cold PBS three times. Fluorescent intensity was measured by a Multimodel Plate Reader (Tecan Infinity 200) with the 485 nmex and 535 nmemiss filter set before and after adding 2-NBDG. Then the cells were lysed in 200 μL lysis buffer (10 mM Tris-HCl pH = 7.4, 150 mM NaCl, 1% Triton-x-100, 1 mM EDTA, 0.1% SDS) and supplemented immediately before they were processed with 10 μg/mL PMSF. Cells were allowed to lyse on ice, and then vortexed and sonicated. The lysate was used for protein determination, protein concentrations were determined as described by BCA kit (Boster, Wuhan, China) with bovine serum albumin as standard.

Regarding `CCC(=O)O[C@H]1CC[C@@]2(C)C(CC[C@]3(C)C2CC=C2C4[C@@H](C)[C@H](C)CC[C@]4(C(=O)O)CC[C@]23C)C1(C)C` (stereo partly shown) [Compound 10], in test [1], the “serum albumin level vs diabetic control” value is reported as “increased significantly”, the “serum insulin level vs diabetic control” value is “increased significantly” and the “serum total protein level vs diabetic control” value is on record as “increased significantly”. Further, in test [2], the “serum TC level vs diabetic control” value is “significantly decreased” and the “serum TG level vs diabetic control” value is reported as “significantly decreased”. In test [3], the “effect on protein expression of SGLT-1” value is “significantly reduce”. The “glucose uptake, % of the control value (Na+-independent)” value in test [4] is 70 % of the control value.
